Assay results taken from patent US9096591B2, “Tetracyclic compounds” (Medivation Technologies, Inc., priority 2007, dated 2015).

What was measured:
[1] = system: adrenergic receptors α1D, α2A, α2B; serotonin receptor 5-HT6; dopamine receptor D2L; test: Classification of compounds (Type 1-4) from receptor binding and neurite outgrowth
From the text: Compounds of the invention that inhibit binding of a ligand to adrenergic receptors α1D, α2A, α2B and serotonin receptor 5-HT6 by at least about 80% as determined in a suitable assay such as the assays described herein can be classified as Type 1 compounds. […] In one variation, binding of a ligand to serotonin receptor 5-HT7 is at least about 80%. […] Weak inhibition of binding of a ligand to the histamine H1 receptor is permitted as agonists of this receptor have been implicated in stimulating memory as well as weight gain. In one variation, binding to histamine receptor H1 is inhibited by less than about 80%. […] Compounds that inhibit binding of a ligand to the dopamine D2L receptor by at least about 80% as determined in a suitable assay such as the assay described herein can be classified as Type 2 compounds.
In one variation, Type 1 compounds further inhibit binding of a ligand to dopamine receptor D2L by less than about 80% as determined in a suitable assay known in the art such as the assay described herein. […] In one variation, binding of a ligand to serotonin receptor 5-HT7, 5-HT2A and/or 5-HT2C is inhibited by at least about 80% as determined in a suitable assay such as the assays described herein. […] In one variation, binding of a ligand to histamine receptor H1 and/or H2 is inhibited by less than about 80% as determined by a suitable assay known in the art such as the assays described herein.
In one variation, biding to serotonin receptor 5-HT2A is inhibited by at least about 80% as determined in a suitable assay know in the art such as the assay described herein.

AMPA receptors = test: AMPA-receptor activity: kainic acid-induced currents in Purkinje cells (patch-clamp); format: cell-based, rat; conditions: mean±SEM, control=100%
Experimental: The analysis of effects of the testing compounds on AMPA receptors was carried out using an electrophysiological patch-clamp method in whole cell configuration (Hamill et al., 1980) of the Purkinje cell fresh isolated from the cerebellum of juvenile rats (12-15 days). The isolation was carried out using a modified method (Kaneda et al., 1988) in which cerebral 400-600 μm sections were incubated for 60 min in the temperature controlled chamber in 10 mL of buffer solution (150 mM NaCl, 5 mM KCl, 2 mM CaCl2, 2 mM MgSO4.7H2O, 10 mM HEPES, 15 mM glucose, pH 7.42). The incubation solution was exchanged with the incubation buffer with pronase (2 mg/mL) and collagenase (1 mg/mL) for 70 min. After a 20 min wash with the original buffer, all sections were placed into the Petri dish and were separated using a Pasteur pipette. All solutions were constantly aerated with 100% O2 at 34° C. The composition of extracellular saline was: 150 mM NaCl, 5 mM KCl, 2.6 mM CaCl2, 2 mM MgSO4.7H2O, 10 mM HEPES, 15 mM glucose, pH 7.36. The transmembrane current was induced as a result of the activation of AMPA receptors by a superfusion with the agonist solution (kainic acid). The currents were measured using borosilicate microelectrodes (resistance […]) filled with 100 mM KCl, 11 mM EGTA, 1 mM CaCl2, 1 mM MgCl2, 10 mM HEPES, 5 mM ATP, pH 7.2. The currents were registered using EPC-9 (HEKA, Germany) and recorded with Pulse software package which was also purchased from HEKA. The analysis of observations was carried out using Pulsefit (HEKA, Germany) and the statistical significance was analyzed using a Student's T-test criteria. Data are presented as mean±SEM in % of control values.
Compounds of the invention were tested in 3-5 neurons. Every concentration of compound was repeated three-four times in every neuron. Data are presented as mean±SEM in % of Control values (Table 13+14, FIGS. 8-12). Control value=100%.

rat brain mitochondria = test: Ca2+-induced swelling of mitochondria (MPT pore opening); format: biochemical, Wistar rats; conditions: rat brain mitochondria; for A540 increase in mitochondrial suspension after addition of 100 μM of compound: 100 μM compound; for IC50: read-out: IC50, Ca2+-induced (25-50 μM) swelling of brain mitochondria, Ca2+ 25-50 μM
Experimental: Rat liver and brain mitochondria were prepared from male Wistar rats. The rats were euthanized in a CO2 chamber followed by decapitation the procedure being in compliance with the Guidelines for Animal Experiments at IPAC RAS. […]
Brain mitochondria were isolated from the pooled forebrains of two rats. The modified method of Sims was used to isolate and purify brain mitochondria in a Percoll gradient. The brain was homogenized in “buffer A” (225 mM mannitol, 75 mM sucrose, 5 mM HEPES, 1 mM EGTA, pH 7.4 [KOH]) and centrifuged for 10 min at 1300 g. The supernatant was centrifuged for 10 min at 10000 g, and then the pellet was suspended in 15% Percoll and layered on a discontinuous gradient consisting of 40 and 23% Percoll, respectively, which was then centrifuged for 10 min at 30000 g without using brakes. The mitochondria were collected from the interface of the lower two layers and after resuspension in “buffer A”, the suspension was centrifuged at 16600 g for 10 min, then the pellet was resuspended in “buffer A”, BSA (10 mg/mL) was added to bind free fatty acids; and the suspensions was centrifuged again at 6300 g for 10 min. Following centrifugation the pelleted mitochondria were re-suspended in isolation medium without EGTA to achieve a protein concentration of 15-20 mg/ml.
Mitochondrial swelling caused by influx of solutes through open PT pores results in an increase in light transmission (i.e., a reduced turbidity). This turbidity change offers a convenient and frequently used assay of the MPT by measurement of absorbance in mitochondrial suspensions. In the present study, the MPT induced by Ca^2+ and inorganic phosphate (Ca/Pi) was monitored by absorbance changes at 540 nm in a cuvette in a Beckman DU 640 spectrophotometer in 1 ml of buffer A plus 0.8 μM rotenone, 5 mM succinate, 1 mM KH2PO4 and 0.5 mg or 0.2 mg protein of isolated liver or brain mitochondria, accordingly. Reaction was started by the addition of triggering agent (Ca^2+). Pre-treatment and reaction were performed at 30° C. Swelling rate was quantified as ΔA540/min/mg, calculated, in all cases, from a tangent to the steepest portion of the plot of A540 versus time.
Ca^2+-induced Swelling of mitochondria was used as the primary screening test for compounds influence on MPT pore opening. […] But the inhibition of swelling may be connected not only with direct inhibition of MPT pore opening but also with the impairment of respiratory function of mitochondria and with the compounds action on calcium transport into mitochondria. For the primary estimation of these possibilities the mitochondrial membrane potential and calcium retention capacity of mitochondria were measured. […] New synthesized compounds (except C-14 and C-43) alone induced an increase of brain mitochondria suspension turbidity. The mechanism of such effect needs additional investigations.

Compound	compound type (classification by receptor binding profile and neurite outgrowth) [1]	kainic acid-induced currents in Purkinje cells, % of Control values (AMPA receptors; compound 10^−5 M) [%]	kainic acid-induced currents in Purkinje cells, % of Control values (AMPA receptors; compound 10^−6 M) [%]	kainic acid-induced currents in Purkinje cells, % of Control values (AMPA receptors; compound 10^−7 M) [%]	kainic acid-induced currents in Purkinje cells, % of Control values (AMPA receptors; compound 10^−8 M) [%]	kainic acid-induced currents in Purkinje cells, % of Control values (AMPA receptors; compound 10^−9 M) [%]	A540 increase in mitochondrial suspension after addition of 100 μM of compound (rat brain mitochondria) [rel.units]	IC50 (rat brain mitochondria) [µM]	kainic acid-induced currents in Purkinje cells, % of Control values (AMPA receptors; compound 3 × 10^−5 M) [%]
CN1CCc2c(c3cc(I)ccc3n2CCc2ccccc2F)C1 [Compound 89, 5-(2-fluorophenethyl)-2,3,4,5-tetrahydro-8-iodo-2-methyl-1H-pyrido[4,3-b]indole]	Type one	–	–	–	–	–	–	–	–
CCOc1ccc(CCn2c3c(c4cc(C)ccc42)CN(C)CC3)cc1 [Compound 334, 5-[2-(4-Ethoxy-phenyl)-ethyl]-2,8-dimethyl-2,3,4,5-tetrahydro-1H-pyrido[4,3-b]indole]	Type one	–	–	–	–	–	–	–	–
Cc1ccc(CCn2c3c(c4cc(Br)ccc42)CN(C)CC3)cn1 [Compound 487, 8-bromo-2-methyl-5-(2-(6-methylpyridin-3-yl)ethyl)-2,3,4,5-tetrahydro-1H-pyrido[4,3-b]indole]	Type one	–	–	–	–	–	–	–	–
Cc1ccc2c(c1)c1c(n2CCc2nc(-c3ccccc3)cs2)CCN(C)C1 [Compound C1-5]	–	126 ± 18	64 ± 23	70 ± 23	62 ± 12	64 ± 8	30	18 ± 16	–
COc1ccc2c(c1)c1c(n2CCc2nc(-c3ccccc3)cs2)CCN(C)C1 [Compound C1-6]	–	135 ± 1	146 ± 12	116 ± 7	101 ± 4	100 ± 3	1.5	12.7 ± 6.2	130 ± 6
CN1CCc2c(c3cc(F)ccc3n2CCc2nc(-c3ccccc3)cs2)C1 [Compound C1-7]	–	–	–	–	–	–	>30	28 ± 6	–
CN1CCc2c(c3ccccc3n2CCc2noc(-c3ccccc3)n2)C1 [Compound C4-1]	–	97 ± 4	110 ± 5	115 ± 3	147 ± 11	125 ± 6	10	3.9 ± 1.6	–
Cc1ccc2c(c1)c1c(n2CCc2noc(-c3ccccc3)n2)CCN(C)C1 [Compound C4-4]	–	150 ± 26	142 ± 11	147 ± 15	129 ± 5	100	14	6.7 ± 1.2	150 ± 20
CN1CCc2c(c3cc(Cl)ccc3n2CCc2noc(-c3ccccc3)n2)C1 [Compound C4-6]	–	152 ± 30	140 ± 25	120 ± 20	100 ± 3	–	28	6 ± 1.2	149 ± 33
